Source: patent publication US5283247A, “Anticonvulsant substituted quinazolones” (Research Corporation Technologies, Inc., priority 1992, dated 1994)

Tests used:
[1] = cited from earlier work
[2] = 24 hour mortality / toxicity in mice after test compound and pentylenetetrazol; assay type: in vivo, male mice (Swiss-Webster); conditions: for 24 Hour Mortality: 100 mg/kg ip, 24 hours after pentylenetetrazol injection, groups of 10; for toxicity at the effective dosage: Example 6, 100 mg/kg ip
Experimental: (§1) The mice were divided in groups of 10, keeping the group weights equal as far as possible. The quinazolones shown in Table 2 as well as methaqualone were injected ip (100 mg/kg) in a 5% aqueous suspension of gum acacia to one group of 10 animals. One hour after the administration of quinazolones, the mice were injected with pentylenetetrazol (90 mg/kg) sc under the loose skin of the back. […] The mice were then observed for the following 60 minutes for the occurrence of seizures. One episode of clonic spasm which persisted for a minimum period of 5 seconds was considered a threshold convulsion. Transient intermittent jerks or tremulousness were not taken into account. Animals devoid of even a threshold convulsion during the period of 60 minutes were considered protected. […] Mortality was recorded 24 hours after the pentylenetetrazol injection. After the injection of test compounds, behavioral observations were also made. […] 2 and compound no.

[3] = reference 3; cited from earlier work
[4] = pentylenetetrazol (90 mg/kg sc) induced seizures in mice, percent protection; assay type: in vivo, male mice (Swiss-Webster); conditions: for Percent Protection: 100 mg/kg ip, pentylenetetrazol 90 mg/kg sc one hour later, observed 60 minutes (Table 3); for Percent Protection / protection against pentylenetetrazol seizures: mice; for Percent Protection against pentylenetetrazol (dose response): pentylenetetrazol 90 mg/kg s.c. given 1 hour after; for Percent Protection against pentylenetetrazol (time response): pentylenetetrazol 90 mg/kg s.c.; for protection against pentylenetetrazol seizures: Example 6, 100 mg/kg ip
Experimental: as §1
(§2) Dose response and time response studies were performed with compound no. 2 by injecting it into a group of 10 male Swiss-Webster mice. In addition, a group of 10 male ICR mice were injected with different dosages of compound no. 2 to determine the approximate LD50.

approximate LD50 in mice = conditions: mouse, in vivo, ip; male ICR mice, observed 24 hours
Experimental: as §2
Approximate LD50 was determined in male ICR mice.

[5] = pentylenetetrazol-induced seizure in rats; assay type: in vivo; conditions: 50 mg/kg orally
Experimental: (§3) Compound No. 2 was also tested in rats. Four rats were treated with compound no. 2 at a dosage of 50 mg/kg orally. Anticonvulsant effects of compound no. […] The toxic symptoms were also observed. It can be seen from this table that compound no.

toxic symptoms in rats = assay type: in vivo; conditions: 50 mg/kg orally
Experimental: as §3

[6] = therapeutic index compared with methaqualone; conditions: conclusion from Examples 6, 7 and 8
[7] = behavioral observations / gross CNS effects in mice; assay type: in vivo, male mice (Swiss-Webster); conditions: 100 mg/kg ip, after injection of test compounds
Experimental: The mice were divided in groups of 10, keeping the group weights equal as far as possible. The quinazolones shown in Table 2 as well as methaqualone were injected ip (100 mg/kg) in a 5% aqueous suspension of gum acacia to one group of 10 animals. One hour after the administration of quinazolones, the mice were injected with pentylenetetrazol (90 mg/kg) sc under the loose skin of the back. […] The mice were then observed for the following 60 minutes for the occurrence of seizures. One episode of clonic spasm which persisted for a minimum period of 5 seconds was considered a threshold convulsion. Transient intermittent jerks or tremulousness were not taken into account. Animals devoid of even a threshold convulsion during the period of 60 minutes were considered protected. […] Mortality was recorded 24 hours after the pentylenetetrazol injection. After the injection of test compounds, behavioral observations were also made.

[8] = Maximal Electric Shock (MES) seizure in mice; assay type: in vivo; conditions: 30 mg/kg ip in mice
Experimental: In addition, compound no. 2 was also tested against Maximal Electric Shock (MES) seizure. Compound no.
(§4) Maximal electroshock seizures were elicited with a 60 cycle alternating current of 50mA intensity (5-7 times that necessary to elicit minimal electroshock seizures) delivered for 0.2 seconds via corneal electrodes. A drop of 0.9% saline was instilled in the eye prior to application of the electrodes in order to […]. Abolition of the hind limb tonic extension component of the seizure was defined as protection.

[9] = maximal electric shock seizures (MES) in rats; assay type: in vivo; conditions: 50 mg/kg orally
Experimental: as §3, §4

**Q.** What does the source list for Cc1nc2ccccc2c(=O)n1-c1ccccc1C(F)(F)F [2-methyl-3-(2-trifluoromethylphenyl)-4-quinazolone]?
**A.** sedative effect compared with methaqualone ([1]; reference 4): better sedative effect; toxicity compared with methaqualone ([1]; reference 4): lower toxicity

**Q.** For Cc1ccccc1-n1c(C)nc2ccccc2c1=O [Compound 1, 2-methyl-3-o-tolyl-4-quinazolone], which “24 Hour Mortality” value [2] is on record?
**A.** The value was 0.

**Q.** And the abuse potential ([1]; in vivo)?
**A.** Its abuse potential is “high abuse potential”.

**Q.** And the “metabolism in the body” value [3]?
**A.** Its value is “metabolized in the body to the N^1 -oxide of the compound”.

**Q.** And the “Percent Protection” value [4]?
**A.** The value was 100%.

**Q.** What does the source list for Cc1cccnc1-n1c(C)nc2ccccc2c1=O [Compound 2, 2-Methyl-3-(3-methyl-2-pyridyl)-4-quinazolone]?
**A.** 24 Hour Mortality [2]: 0; toxicity at the effective dosage [2]: did not exhibit any toxicity; LD50 at 24 h (approximate LD50 in mice): ~1000 mg/kg; Percent protection against pentylenetetrazol ([5]; 0.25 Hr., three rats): 33.3%; Percent protection against pentylenetetrazol ([5]; 0.5 Hr., four rats): 75%; Percent protection against pentylenetetrazol ([5]; 1 Hr., four rats): 25%; Percent protection against pentylenetetrazol ([5]; 4 Hr., four rats): 25%; protection against pentylenetetrazol-induced seizure ([5]; all time periods, Example 8): protected against both MES and pentylenetetrazol-induced seizure at all time periods; Toxicity in percent rats (toxic symptoms in rats; 0.25 Hr.): 0%; Toxicity in percent rats (toxic symptoms in rats; 0.5 Hr.): 0%; Toxicity in percent rats (toxic symptoms in rats; 1 Hr.): 0%; Toxicity in percent rats (toxic symptoms in rats; 2 Hr.): 0%; Toxicity in percent rats (toxic symptoms in rats; 4 Hr.): 0%; toxic symptoms (toxic symptoms in rats; rats, all time periods, Example 8): without exhibiting any toxic symptoms; therapeutic index versus methaqualone [6]: higher therapeutic indices than methaqualone; Percent Protection against pentylenetetrazol (dose response) ([4]; 40 mg/kg i.p.): 20%; Percent Protection against pentylenetetrazol (dose response) ([4]; 60 mg/kg i.p.): 80%; Percent Protection against pentylenetetrazol (dose response) ([4]; 80 mg/kg i.p.): 90%; Percent Protection against pentylenetetrazol (dose response) ([4]; 100 mg/kg i.p.): 100%; Percent Protection [4]: 100%; Percent Protection against pentylenetetrazol (time response) ([4]; 1 hr after injection, 100 mg/kg i.p.): 100%; Percent Protection against pentylenetetrazol (time response) ([4]; 2 hr after injection, 100 mg/kg i.p.): 60%; Percent Protection against pentylenetetrazol (time response) ([4]; 3 hr after injection, 100 mg/kg i.p.): 0%; Percent Protection against pentylenetetrazol (time response) ([4]; 4 hr after injection, 100 mg/kg i.p.): 0%; protection against pentylenetetrazol seizures [4]: 100%; Behavioral Observations [7]: mild sedation; protection against MES [8]: 100%; Percent protection against MES ([9]; 0.25 Hr.): 75%; Percent protection against MES ([9]; 0.5 Hr.): 50%; Percent protection against MES ([9]; 1 Hr.): 75%; Percent protection against MES ([9]; 2 Hr.): 50%; Percent protection against MES ([9]; 4 Hr.): 25%; protection against MES ([9]; all time periods, Example 8): protected against both MES and pentylenetetrazol-induced seizure at all time periods

**Q.** With Cc1ccccc1-n1c(C)nc2cc(N)ccc2c1=O [Compound 14, 2-Methyl-3-o-tolyl-7-amino-4-quinazolone] as the molecule, how does the “24 Hour Mortality” value [2] read?
**A.** Its value is 0.

**Q.** And the “toxicity at the effective dosage” value [2]?
**A.** Its value is “did not exhibit any toxicity”.

**Q.** And the “therapeutic index versus methaqualone” value [6]?
**A.** Its value is “higher therapeutic indices than methaqualone”.

**Q.** And the “Percent Protection” value [4]?
**A.** The value was 100%.

**Q.** And the “protection against pentylenetetrazol seizures” value [4]?
**A.** Its value is 100%.

**Q.** And the “Behavioral Observations” value [7]?
**A.** The value was “none”.
